Reference: patent US8372971B2, “Heterocyclic compounds and methods of use” (TargeGen, Inc., priority 2004, dated 2013)
Counter-ions that a name gives are not always drawn.

Legend:
Type in all cases: cell-based, human
[1] = tested on: p-MEK and p-ERK levels in HUVECs; assay: Western Blot, inhibition of MAPK pathway in cellular assay (Example 27); conditions: for Western Blot: at 5 uM, 50 ng/ml VEGF or FGF
Experimental: (§1) Western Blot: Early passage primary human umbilical vein endothelial cells (HUVECs) were maintained in EGM-2 containing SingleQuots (Cambrex, East Rutherford, N.J.), 10% FBS, 10 mM HEPES, and 50 μg/ml gentamicin. Prior to treatment of the cells with inhibitor, the HUVECs were starved for 18 h by replacing serum-containing complete media with scrum-free and SingleQuot-free media. The starved cells were pre-treated with inhibitors for 60 min at various concentrations (0-20 μM). Next the HUVECs were treated with 50 ng/ml VEGF or FGF (Peprotech, Rocky Hill, N.J.) for 6 min and the cells were immediately washed with ice-cold PBS. Cells were lysed with ice-cold RIPA buffer containing 100 mM Tris pH 7.5, 150 mM NaCl, 1 mM EDTA, 1% deoxycholate, 1% Triton X-100, 0.1% SDS, 2 mM PMSF, one Complete-Mini protease inhibitor tablet (Roche, Indianapolis, Ind.; 1 tablet/7 ml of lysis buffer) and the phophatase inhibitors NaF (500 mM) and orthovanadate (1 mM). The cells were scraped and lysates transferred and centrifuged at 15,000 g for 10 min. Supernatants were transferred to new tubes and protein concentration was quantitated using the BCA protein reagent (Pierce, Rockford, Ill.). Cell lysates containing 20 μg of total protein were separated by 10% SDS-PAGE, transferred to nitrocellulose, and blocked in 5% milk in TBST. Anti phospho-ERK Thr 202/Tyr 204 (Cell Signaling, Beverly, Mass.), anti-phospho-MEK Ser217/221 (Cell Signaling), and c-Raf (BD Biosciences Pharmingen, San Diego, Calif.) used as primary antibodies were detected with horseradish peroxidase-conjugated goat anti-mouse or rabbit secondary antibodies and bands were visualized using the SuperSignal West Pico chemiluminescence reagent system (Pierce) and Kodak X-ray film (Rochester, N.Y.).

HUVECs = assay: XTT cell viability assay (Example 106); conditions: Homo sapiens, HUVEC, 72 hours, read-out: Inhibition of HUVEC cell prolifiration (IC50)
Experimental: Some compounds described by the general structure (B) were tested for cell viability. XTT assay: HUVECs were seeded at 10,000 cells/well of a tissue culture treated 96-well plate treated with collagen type I and grown overnight in the complete EGM-2 media as described above. The following morning, the inhibitors were serial diluted with DMSO and added to the cells with a final DMSO concentration of 1%. After 72 hours cell viability was measured with an XTT assay (Sigma, St. Louis, Mo.). The cells were also photographed to compare morphological differences to the XTT trends observed. Determination of the IC50 values was performed with quantitative software (Prism software package, GraphPad Software, San Diego Calif.).

[2] = tested on: p-MEK and p-ERK levels in HUVECs; assay: Western Blot, inhibition of MAPK pathway in cellular assay (Example 105); conditions: for Western Blot: 50 ng/ml VEGF or FGF
Experimental: as §1, with “Some compounds described by the general structure (B) were tested for inhibition of MAPK pathway in cellular assay. Western” for “Western”, “serum-free” for “scrum-free”, “main.” for “min.”

[3] = Homo sapiens, HUVEC, VEGF or FGF, read-out: reduction in p-Erk levels, IC50

SMILES: CNC(=O)c1cc(Oc2ccc3nc(NC(=O)c4cc(C(F)(F)F)ccc4Cl)nnc3c2)ccn1 [4-[2-chloro-3-trifluoromethyl-benzoylamino)-benzo[1,2,4]triazin-7-yloxy]-pyridine-2-carboxylic acid methyl amide trifluoroacetate salt]
- Western Blot [1]: not active at 5 uM

SMILES: Nc1cc(Oc2cccc(-c3nnc(Nc4ccc(Cl)c(C(F)(F)F)c4)[nH]3)c2)nc(N)n1 [6-{3-[5-(4-chloro-3-trifluoromethyl-phenylamino)-4H-[1,2,4]triazol-3-yl]-phenoxy}-pyrimidine-2,4-diamine trifluoroacetic acid salt]
- IC50 (HUVECs): 0.404 µM
- Western Blot ([2]; at 5 uM): active at 5 uM

SMILES: Clc1ccc(Nc2nnc(-c3ccc(Oc4cccnc4)cc3)o2)cc1 [5-[4-(Pyridin-3-yloxy)phenyl]-N-[4-chloro-phenyl]-1,3,4-oxadiazol-2-amine]
- IC50 (HUVECs): 9.6 µM
- Western Blot ([2]; at 10 uM): active at 10 uM

SMILES: CNC(=O)c1cc(Oc2ccc3nc(NS(=O)(=O)c4cc(C(F)(F)F)ccc4Cl)nnc3c2)ccn1 [4-[2-chloro-5-(trifluoromethyl-benzenesulfonylamino)-benzo[1,2,4]triazin-7-yloxy]-pyridine-2-carboxylic acid methyl amide trifluoroacetate salt]
- Western Blot [1]: not active at 5 uM

SMILES: Clc1cccc(Nc2nnc(-c3ccc(Oc4cncnc4)cc3)o2)c1 [5-[4-(Pyrimidin-5-yloxy)phenyl]-N-[3-chloro-phenyl]-1,3,4-oxadiazol-2-amine]
- IC50 (HUVECs): ~20 µM
- Western Blot ([2]; at 5 uM): active at 5 uM

SMILES: O=C(Nc1nnc(-c2ccc(Oc3cccnc3)cc2)o1)c1ccc(Br)cc1 [4-Bromo-N-{5-[4-(pyridin-3-yloxy)phenyl]-1,3,4-oxadiazol-2-yl}-benzamide]
- IC50 (HUVECs): > 40 µM
- Western Blot ([2]; at 10 uM): not active at 10 uM

SMILES: CN(C)C(=O)c1cc(Oc2ccc3nc(N(C)C(=O)c4ccc(OC(F)(F)F)cc4)nnc3c2)ccn1 [4-{3-[Methyl-(4-trifluoromethoxy-benzoyl)-amino]-benzo[1,2,4]triazin-7-yloxy}-pyridine-2-carboxylic acid dimethyl amide]
- Western Blot [1]: partially active at 5 uM

SMILES: Clc1ccc(Nc2nnc(-c3ccc(Oc4cncnc4)cc3)o2)cc1 [5-[4-(Pyrimidin-5-yloxy)phenyl]-N-[4-chloro-phenyl]-1,3,4-oxadiazol-2-amine]
- IC50 (HUVECs): > 20 µM
- Western Blot ([2]; at 5 uM): active at 5 uM

SMILES: Nc1cc(Oc2ccc(-c3nnc(Nc4ccc(Cl)c(C(F)(F)F)c4)o3)cc2)nc(N)n1 [6-[4-(5-{[4-Chloro-3-trifluoromethyl-phenyl]amino}-1,3,4-oxadiazol-2-yl)-phenoxy]-pyrimidine-2,4-diamine]
- IC50 (HUVECs): 1.57 µM
- Western Blot ([2]; at 5 uM): active at 5 uM

SMILES: O=C(Nc1nnc(-c2ccc(Oc3cccnc3)cc2)o1)c1ccc(OC(F)(F)F)cc1 [N-{5-[4-(pyridine-3-yloxy)phenyl]-1,3,4-oxadiazol-2-yl}-4-(trifluoromethoxy)benzamide]
- IC50 (HUVECs): > 40 µM
- Western Blot ([2]; at 10 uM): not active at 10 uM

SMILES: N#CC(=C(/N)Sc1ccccc1N)/C(C#N)=C(\N)Sc1ccccc1N [Example U0126, reference compound]
- IC50 [2, 3]: 0.2 to 0.3 µM
- p-MEK levels ([2]; VEGF or FGF): unaffected
- IC50 [1, 3]: 0.2 to 0.3 µM
- p-MEK levels ([1]; VEGF or FGF): unaffected

SMILES: Nc1cc(Oc2ccc(-c3nnc(Nc4cccc(Cl)c4)o3)cc2)nc(N)n1 [6-(4-{5-[(3-chlorophenyl)amino]-1,3,4-oxadiazol-2-yl}phenoxy) pyrimidine-2,4-diamine]
- IC50 (HUVECs): ~20 µM
- Western Blot ([2]; at 5 uM): active at 5 uM

SMILES: Nc1cc(Oc2ccc(Nc3nnc(-c4ccc(Cl)c(C(F)(F)F)c4)[nH]3)cc2)nc(N)n1 [6-[4-({5-[4-chloro-3-(trifluoromethyl)phenyl-4H-1,2,4-triazol-3-yl}amino)phenoxy]pyrimidine-2,4-diamine trifluoroacetate salt]
- IC50 (HUVECs): 9.57 µM
- Western Blot ([2]; at 5 uM): active at 5 uM

SMILES: O=C(Nc1nnc(-c2ccc(Oc3cccnc3)cc2)o1)c1ccc2c(c1)OC(F)(F)O2 [2,2-Difluoro-N-{5-[4-(pyridin-3-yloxy)phenyl]-1,3,4-oxadiazol-2-yl}-1,3-benzodioxole-5-carboxamide]
- IC50 (HUVECs): > 40 µM
- Western Blot ([2]; at 10 uM): not active at 10 uM

SMILES: O=C(Nc1ccc(OC(F)(F)F)cc1)Nc1nnc2cc(Oc3ccnc(C(=O)NCCN4CCOCC4)c3)ccc2n1 [4-{3-[3-(4-Trifluoromethoxy-phenyl)-ureido]-benzo[1,2,4]triazin-7-yloxy}-pyridine-2-carboxylic acid (2-morpholin-4-yl-ethyl)-amide]
- Western Blot [1]: not active at 5 uM

SMILES: FC(F)(F)c1cc(Nc2nnc(-c3ccc(Oc4cncnc4)cc3)o2)ccc1Cl [N-[4-chloro-3-(trifluoromethyl)phenyl]-5-[4-(pyrimidin-5-yloxy)phenyl]-1,3,4-oxadiazol-2-amine trifluoroacetate salt]
- IC50 (HUVECs): 9.65 µM
- Western Blot ([2]; at 5 uM): active at 5 uM

SMILES: O=C(Nc1nnc(-c2ccc(Oc3cccnc3)cc2)o1)c1ccc(F)c(C(F)(F)F)c1 [4-Fluoro-N-{5-[4-(pyridin-3-yloxy)phenyl]-1,3,4-oxadiazol-2-yl}-3-(trifluoromethyl)-benzamide]
- IC50 (HUVECs): ~20 µM
- Western Blot ([2]; at 10 uM): active at 10 uM

SMILES: Nc1ccc(Oc2ccc(Nc3nnc(-c4ccc(Cl)c(C(F)(F)F)c4)[nH]3)cc2)nn1 [6-[4-({5-[4-chloro-3-(trifluoromethyl)phenyl]-4H-1,2,4-triazol-3-yl}amino)phenoxy]pyridazin-3-amine trifluoroacetate salt]
- IC50 (HUVECs): > 40 µM
- Western Blot ([2]; at 5 uM): active at 5 uM

SMILES: FC(F)(F)c1cc(Nc2nnc(-c3ccc(Oc4cccnc4)cc3)[nH]2)ccc1Cl [(4-chloro-3-trifluoromethyl-phenyl)-{5-[4-(pyridin-3-yloxy)-phenyl]-4H-[1,2,4]triazol-3-yl}-amine]
- IC50 (HUVECs): 1.81 µM
- Western Blot ([2]; at 5 uM): active at 5 uM

SMILES: Nc1cc(Oc2ccc(-c3nnc(Nc4ccc(Cl)c(C(F)(F)F)c4)[nH]3)cc2)nc(N)n1 [6-{4-[5-(4-chloro-3-trifluoromethyl-phenylamino)-4H-[1,2,4]-triazol-3-yl]-phenoxy}-pyrimidine-2,4-diamine]
- IC50 (HUVECs): 0.089 µM
- Western Blot ([2]; at 5 uM): active at 5 uM

SMILES: FC(F)(F)c1cccc(Nc2nnc(-c3ccc(Oc4cncnc4)cc3)o2)c1 [5-[4-(Pyrimidin-5-yloxy)phenyl]-N-[3-(trifluoromethyl)phenyl]-1,3,4-oxadiazol-2-amine]
- IC50 (HUVECs): > 10 µM
- Western Blot ([2]; at 5 uM): active at 5 uM

SMILES: COc1ccc(C(=O)Nc2nnc(-c3ccc(Oc4cccnc4)cc3)o2)cc1C(F)(F)F [4-methoxy-N-{5-[4-(pyridin-3-yloxy)phenyl]-1,3,4-oxadiazol-2-yl}-3-(trifluoromethyl)-benzamide]
- IC50 (HUVECs): > 40 µM
- Western Blot ([2]; at 10 uM): active at 10 uM

SMILES: Br.Nc1nnc(-c2ccc(Oc3cccnc3)cc2)o1 [5-[4-(Pyridin-3-yloxy)phenyl]-1,3,4-oxadiazol-2-amine hydrobromide salt]
- IC50 (HUVECs): > 40 µM
- Western Blot ([2]; at 10 uM): not active at 10 uM
